Measurements published in patent publication US20240368106A1, “HYDROXY AND ALKOXY COUMARINS AS MODULATORS OF POLRMT” (Pretzel Therapeutics, Inc., priority 2021, published 2024).

Target: POLRMT (Homo sapiens (Human), UniProt O00411)
Assay: homogeneous TR-FRET assay of mitochondrial transcription (inhibition of POLRMT)
Format: biochemical
Settings: 7.5 nM POLRMT, 15 nM TFB2M, 30 nM TFAM, 0.5 nM DNA template, 500 μM NTPs, 37° C., 60 minutes
Method in brief: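 Human POLRMT (7.5 nM) with TFB2M (15 nM), TFAM (30 nM), 0.5 nM linearized LSP plasmid template and 500 μM NTPs in pH 7.5 Tris/MgCl2 buffer, 60 min at 37 °C. Stopped with EDTA/high-salt; 407 bp transcript detected by hybridized Europium/ATTO647N probes. 665/620 nm ratio gives activity.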

Chain of POLRMT (O00411 42-1230): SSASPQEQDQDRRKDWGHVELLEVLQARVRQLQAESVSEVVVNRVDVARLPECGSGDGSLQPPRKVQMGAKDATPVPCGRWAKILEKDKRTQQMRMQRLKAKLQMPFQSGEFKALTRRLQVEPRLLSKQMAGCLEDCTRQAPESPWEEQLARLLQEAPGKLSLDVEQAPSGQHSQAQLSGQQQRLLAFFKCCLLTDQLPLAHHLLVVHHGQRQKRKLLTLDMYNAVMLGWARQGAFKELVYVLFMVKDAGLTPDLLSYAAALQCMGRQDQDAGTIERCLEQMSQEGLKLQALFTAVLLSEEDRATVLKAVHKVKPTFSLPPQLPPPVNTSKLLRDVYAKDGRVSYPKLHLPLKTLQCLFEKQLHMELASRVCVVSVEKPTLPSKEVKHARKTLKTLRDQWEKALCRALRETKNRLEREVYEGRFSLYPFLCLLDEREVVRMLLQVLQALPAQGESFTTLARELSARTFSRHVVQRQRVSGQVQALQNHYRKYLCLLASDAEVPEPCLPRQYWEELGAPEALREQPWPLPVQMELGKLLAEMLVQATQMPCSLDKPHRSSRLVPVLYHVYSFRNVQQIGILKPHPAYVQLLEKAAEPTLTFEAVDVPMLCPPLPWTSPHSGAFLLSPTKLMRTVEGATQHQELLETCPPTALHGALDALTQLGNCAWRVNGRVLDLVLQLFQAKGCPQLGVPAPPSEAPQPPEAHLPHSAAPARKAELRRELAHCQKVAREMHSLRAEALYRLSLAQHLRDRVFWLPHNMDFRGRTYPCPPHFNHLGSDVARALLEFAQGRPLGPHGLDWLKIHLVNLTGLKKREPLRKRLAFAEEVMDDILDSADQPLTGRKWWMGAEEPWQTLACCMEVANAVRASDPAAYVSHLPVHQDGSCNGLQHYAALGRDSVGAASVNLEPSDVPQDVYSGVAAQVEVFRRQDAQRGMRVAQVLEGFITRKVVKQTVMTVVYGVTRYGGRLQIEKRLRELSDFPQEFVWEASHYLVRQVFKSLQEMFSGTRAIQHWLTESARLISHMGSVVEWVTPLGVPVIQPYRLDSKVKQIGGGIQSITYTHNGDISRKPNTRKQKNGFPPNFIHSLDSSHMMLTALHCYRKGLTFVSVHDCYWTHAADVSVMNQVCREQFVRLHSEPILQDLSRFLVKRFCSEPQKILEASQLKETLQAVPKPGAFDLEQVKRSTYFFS

SMILES | IC50 [nM]
CCCOc1ccc2c(-c3cscc3C)cc(=O)oc2c1 [Example 33, 4-(4-methylthiophen-3-yl)-7-propoxy-2H-chromen-2-one] | 200
Cc1cc(O)cc2oc(=O)cc(-c3ccc(F)cc3)c12 [Example 16, 4-(4-fluorophenyl)-7-hydroxy-5-methyl-2H-chromen-2-one] | > 100000
Cc1ccccc1-c1cc(=O)oc2cc(OCC3CCCCO3)ccc12 (single isomer, unassigned) [Example 39, 7-((tetrahydro-2H-pyran-2-yl)methoxy)-4-(o-tolyl)-2H-chromen-2-one] | 900
CCOCC(Oc1ccc2c(-c3ccccc3C)cc(=O)oc2c1)C(N)=O (centres unmarked) [Example 99] | 4000
CCCOc1ccc2c(-c3cnccc3C(F)(F)F)cc(=O)oc2c1 [Example 32, 7-propoxy-4-(4-(trifluoromethyl)pyridin-3-yl)-2H-chromen-2-one] | 23000

Second part, the molecule after the results:

IC50 [nM] | SMILES
30 | Cc1cccc(C)c1-c1cc(=O)oc2cc(OCC#N)ccc12 [Example 107, 2-((4-(2,6-dimethylphenyl)-2-oxo-2H-chromen-7-yl)oxy)acetonitrile]
200 | CCNC(=O)C(COC)Oc1ccc2c(-c3ccccc3C)cc(=O)oc2c1 (single isomer, unassigned) [Example 81, N-ethyl-3-methoxy-2-((2-oxo-4-(o-tolyl)-2H-chromen-7-yl)oxy)propanamide]
17000 | CCCOc1ccc2c(-c3c(C)noc3C)cc(=O)oc2c1 [Example 52, 4-(3,5-dimethylisoxazol-4-yl)-7-propoxy-2H-chromen-2-one]
